Results from patent US10934274B2, “Quinoline derivatives as TAM RTK inhibitors” (Qurient Co., Ltd., priority 2015, dated 2021).

Assays:
Met = target: T1, Met (Homo sapiens, UniProt P08581); assay: LanthaScreen Eu kinase binding assay, Met; details: Tracer 236, read-out: cMet kinase binding activity (Kd)
T1 construct: purchased Life Technologies
Protocol: (§1) LanthaScreen® Eu Kinase Binding assays were conducted at Life Technologies using the manufacturer's specifications for each kinase indicated.
(§2) Briefly, the principle behind this assay is based upon the binding and displacement of an Alexa Fluor 647-labeled tracer to the kinase of interest. Binding of the tracer to the kinase is detected using an EU-labeled anti-tag antibody. Simultaneous binding of both the tracer and antibody to the kinase gives rise to a FRET-signal. Binding of an inhibitor to the kinase competes for binding with the tracer, resulting in a loss of FRET-signal.
(§3) Binding Assay Protocol for AXL, Mer, Tyro3 and Met
(§4) A given compound was diluted in DMSO to make a stock compound solution. The stock compound solution was serially diluted over eight steps in DMSO. Each diluted compound solution in DMSO was diluted in kinase buffer. Afterwards four kinds of working solution were prepared. First, Tracer-Working solution consists of Tracer 236 and Kinase Buffer. Second, Axl, Mer, Tyro3 or Met/anti-GST-AB-Working solution contained one of the kinases Axl, Mer, Tyro3, Met or anti-GST-AB (=anti glutathione-S-transferase antibody) in Kinase Buffer. Third, anti-GST-AB-Working solution was made with anti-GST-AB and Kinase Buffer. Last, in the DMSO-Working solution DMSO was added to Kinase Buffer to a final concentration to 3%. Each of the four kinds of working solutions were separately added to the assay plate and then incubated for 1 h at room temperature. After incubation, the assay plate was measured with respect to the FRET-Signal with the EnVision (Perkin Elmer) using the program LanthaHTRF-Assay. Data evaluation was done in the Quattro Workflow software.
(§5) Table 1 summarises the results obtained for AXL, Mer and Tyro3-kinases binding assays; table 2 summarises the results obtained for the Met kinase binding assay.

Mer = target: T2, Mer (Homo sapiens, UniProt Q12866); assay: LanthaScreen Eu kinase binding assay, Mer; details: Tracer 236
T2 construct: purchased Life Technologies
T2 sequence (Q12866 21-999): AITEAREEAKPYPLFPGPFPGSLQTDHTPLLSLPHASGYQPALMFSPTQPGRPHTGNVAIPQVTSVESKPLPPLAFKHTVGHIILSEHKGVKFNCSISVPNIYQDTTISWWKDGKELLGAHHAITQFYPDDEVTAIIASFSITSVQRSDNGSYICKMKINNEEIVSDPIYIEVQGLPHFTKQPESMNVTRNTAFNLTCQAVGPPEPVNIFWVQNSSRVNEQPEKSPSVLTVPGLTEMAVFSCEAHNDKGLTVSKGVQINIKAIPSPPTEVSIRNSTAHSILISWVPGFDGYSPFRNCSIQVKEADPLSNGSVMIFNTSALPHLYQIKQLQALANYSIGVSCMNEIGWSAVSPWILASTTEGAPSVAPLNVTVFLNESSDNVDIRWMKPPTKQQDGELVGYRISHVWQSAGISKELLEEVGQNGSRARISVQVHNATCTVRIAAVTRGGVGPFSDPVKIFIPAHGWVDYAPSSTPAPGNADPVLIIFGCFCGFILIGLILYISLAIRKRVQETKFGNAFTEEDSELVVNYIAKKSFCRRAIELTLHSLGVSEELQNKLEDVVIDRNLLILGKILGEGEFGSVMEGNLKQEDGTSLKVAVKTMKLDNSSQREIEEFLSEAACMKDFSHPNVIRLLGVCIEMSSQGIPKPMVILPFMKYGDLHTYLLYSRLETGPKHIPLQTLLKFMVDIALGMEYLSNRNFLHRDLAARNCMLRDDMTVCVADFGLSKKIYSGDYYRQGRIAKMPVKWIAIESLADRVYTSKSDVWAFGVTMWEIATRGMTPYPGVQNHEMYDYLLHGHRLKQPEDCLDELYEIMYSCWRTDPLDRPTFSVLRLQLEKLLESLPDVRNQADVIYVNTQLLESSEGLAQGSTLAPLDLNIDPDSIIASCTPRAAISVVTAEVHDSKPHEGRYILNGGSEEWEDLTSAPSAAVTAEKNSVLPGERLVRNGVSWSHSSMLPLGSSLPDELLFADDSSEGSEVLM
Protocol: as §1, §2, §3, §4, §5

TYRO3 = target: T3, TYRO3 (Homo sapiens, UniProt Q06418); assay: LanthaScreen Eu kinase binding assay, TYRO3; details: Tracer 236
T3 construct: purchased Life Technologies
T3 sequence (Q06418 41-890): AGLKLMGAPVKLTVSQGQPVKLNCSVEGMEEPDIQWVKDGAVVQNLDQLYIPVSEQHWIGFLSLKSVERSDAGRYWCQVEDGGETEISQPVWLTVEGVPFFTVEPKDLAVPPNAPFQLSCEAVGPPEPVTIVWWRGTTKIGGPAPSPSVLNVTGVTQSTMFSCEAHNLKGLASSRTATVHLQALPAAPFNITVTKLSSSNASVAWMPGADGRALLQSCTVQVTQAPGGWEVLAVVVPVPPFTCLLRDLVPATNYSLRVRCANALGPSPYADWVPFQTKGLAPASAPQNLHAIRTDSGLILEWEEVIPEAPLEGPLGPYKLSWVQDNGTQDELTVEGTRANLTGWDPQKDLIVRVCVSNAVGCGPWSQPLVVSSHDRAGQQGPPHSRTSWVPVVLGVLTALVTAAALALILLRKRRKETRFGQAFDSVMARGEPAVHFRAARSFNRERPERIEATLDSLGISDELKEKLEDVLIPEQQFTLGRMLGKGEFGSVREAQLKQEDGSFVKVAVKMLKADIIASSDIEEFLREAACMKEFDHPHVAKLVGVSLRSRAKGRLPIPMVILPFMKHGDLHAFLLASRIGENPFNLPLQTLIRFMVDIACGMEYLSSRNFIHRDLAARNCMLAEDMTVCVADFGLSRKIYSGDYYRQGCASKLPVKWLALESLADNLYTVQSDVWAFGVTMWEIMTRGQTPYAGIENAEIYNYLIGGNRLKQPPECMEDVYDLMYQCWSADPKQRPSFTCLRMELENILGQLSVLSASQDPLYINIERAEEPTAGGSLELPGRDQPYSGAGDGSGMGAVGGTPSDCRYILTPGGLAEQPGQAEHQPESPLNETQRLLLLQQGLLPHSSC
Protocol: as §1, §2, §3, §4, §5

Axl = target: T4, Axl (Homo sapiens, UniProt P30530); assay: LanthaScreen Eu kinase binding assay, Axl; details: Tracer 236
T4 construct: purchased Life Technologies
T4 sequence (P30530 26-894): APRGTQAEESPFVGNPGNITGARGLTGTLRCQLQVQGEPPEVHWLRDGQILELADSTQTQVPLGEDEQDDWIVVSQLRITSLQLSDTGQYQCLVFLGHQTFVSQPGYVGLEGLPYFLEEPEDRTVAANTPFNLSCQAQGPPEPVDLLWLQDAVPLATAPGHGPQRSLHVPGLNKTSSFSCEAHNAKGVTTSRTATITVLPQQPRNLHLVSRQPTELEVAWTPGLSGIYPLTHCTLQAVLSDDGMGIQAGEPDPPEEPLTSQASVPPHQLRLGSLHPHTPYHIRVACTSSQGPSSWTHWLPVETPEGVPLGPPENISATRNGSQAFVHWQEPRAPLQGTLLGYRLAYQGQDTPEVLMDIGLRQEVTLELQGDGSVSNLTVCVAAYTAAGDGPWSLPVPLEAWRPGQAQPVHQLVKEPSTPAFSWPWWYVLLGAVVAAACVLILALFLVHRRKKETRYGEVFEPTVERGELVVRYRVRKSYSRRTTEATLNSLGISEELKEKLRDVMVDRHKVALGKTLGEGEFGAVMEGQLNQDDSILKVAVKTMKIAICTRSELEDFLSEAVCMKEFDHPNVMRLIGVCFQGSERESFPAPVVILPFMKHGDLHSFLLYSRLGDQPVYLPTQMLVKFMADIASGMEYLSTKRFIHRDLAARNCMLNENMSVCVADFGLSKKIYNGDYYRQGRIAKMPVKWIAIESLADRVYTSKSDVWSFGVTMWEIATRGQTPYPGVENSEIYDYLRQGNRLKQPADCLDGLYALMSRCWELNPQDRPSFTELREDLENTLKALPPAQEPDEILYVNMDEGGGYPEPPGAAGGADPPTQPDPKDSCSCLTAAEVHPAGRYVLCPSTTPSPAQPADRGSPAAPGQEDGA
Protocol: as §1, §2, §3, §4, §5

T1 sequence (P08581 25-1390): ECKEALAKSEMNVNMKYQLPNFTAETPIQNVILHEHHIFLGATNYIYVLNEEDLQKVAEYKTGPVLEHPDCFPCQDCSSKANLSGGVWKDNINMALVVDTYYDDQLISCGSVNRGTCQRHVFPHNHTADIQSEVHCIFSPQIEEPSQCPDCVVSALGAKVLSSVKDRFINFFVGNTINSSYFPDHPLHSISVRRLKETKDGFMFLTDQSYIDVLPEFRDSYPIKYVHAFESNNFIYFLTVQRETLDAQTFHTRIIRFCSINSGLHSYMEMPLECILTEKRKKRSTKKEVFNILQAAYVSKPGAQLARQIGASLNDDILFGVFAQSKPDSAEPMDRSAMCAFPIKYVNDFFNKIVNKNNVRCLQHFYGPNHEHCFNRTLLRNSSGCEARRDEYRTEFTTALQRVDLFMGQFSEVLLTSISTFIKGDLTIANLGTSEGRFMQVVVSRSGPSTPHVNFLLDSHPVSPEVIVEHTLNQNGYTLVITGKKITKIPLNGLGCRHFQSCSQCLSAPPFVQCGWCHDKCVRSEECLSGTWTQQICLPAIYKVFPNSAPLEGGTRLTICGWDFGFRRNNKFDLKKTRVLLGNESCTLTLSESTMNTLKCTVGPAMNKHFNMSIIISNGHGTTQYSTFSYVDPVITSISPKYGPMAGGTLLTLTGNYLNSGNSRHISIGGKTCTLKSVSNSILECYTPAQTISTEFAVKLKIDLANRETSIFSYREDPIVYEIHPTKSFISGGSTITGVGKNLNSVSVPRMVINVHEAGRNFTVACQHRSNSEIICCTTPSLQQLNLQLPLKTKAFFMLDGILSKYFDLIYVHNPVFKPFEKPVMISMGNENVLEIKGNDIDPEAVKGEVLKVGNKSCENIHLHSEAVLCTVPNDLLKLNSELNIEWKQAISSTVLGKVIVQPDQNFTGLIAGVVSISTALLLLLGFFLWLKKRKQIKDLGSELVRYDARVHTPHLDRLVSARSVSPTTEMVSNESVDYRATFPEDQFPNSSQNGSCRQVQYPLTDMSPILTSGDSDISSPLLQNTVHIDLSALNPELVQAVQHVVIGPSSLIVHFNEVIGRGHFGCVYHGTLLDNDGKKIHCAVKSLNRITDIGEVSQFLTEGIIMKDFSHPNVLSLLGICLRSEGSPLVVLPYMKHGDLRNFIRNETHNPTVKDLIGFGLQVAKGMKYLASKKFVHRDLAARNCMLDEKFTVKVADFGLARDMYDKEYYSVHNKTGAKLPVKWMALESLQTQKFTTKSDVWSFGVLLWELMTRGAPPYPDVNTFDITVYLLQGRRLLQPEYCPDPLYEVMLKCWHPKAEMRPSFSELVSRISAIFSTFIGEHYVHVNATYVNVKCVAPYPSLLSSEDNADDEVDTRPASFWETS

| Kd (Met) | Kd (Mer) | Kd (TYRO3) | Kd (Axl) | SMILES |
| --- | --- | --- | --- | --- |
| 0.1 to 1 µM | < 0.1 µM | 0.1 to 1 µM | 0.1 to 1 µM | CCOc1cn(CCN(C)C)nc1C(=O)Nc1ccc(Oc2ccnc3cc(OC)c(OC)cc23)cn1 [Compound 49] |
| ≥ 1 µM | ≥ 1 µM | ≥ 1 µM | 0.1 to 1 µM | CCOc1cn(-c2ccc(C#N)nc2)nc1C(=O)Nc1ccc(Oc2ccnc3cc(OC)c(OC)cc23)cn1 [Compound 50] |
| 0.1 to 1 µM | 0.1 to 1 µM | ≥ 1 µM | 0.1 to 1 µM | CCOc1cnn(CC2CCO2)c1C(=O)Nc1ccc(Oc2ccnc3cc(OC)c(OC)cc23)cn1 (centres unmarked) [Compound 51] |
| ≥ 1 µM | ≥ 1 µM | ≥ 1 µM | ≥ 1 µM | CCOc1cnn(CCN(C)C)c1C(=O)Nc1ccc(Oc2ccnc3cc(OC)c(OC)cc23)cn1 [Compound 52] |
| ≥ 1 µM | ≥ 1 µM | ≥ 1 µM | ≥ 1 µM | CCOc1cnn(-c2ccc(C#N)nc2)c1C(=O)Nc1ccc(Oc2ccnc3cc(OC)c(OC)cc23)cn1 [Compound 53] |
| ≥ 1 µM | ≥ 1 µM | ≥ 1 µM | ≥ 1 µM | CCOc1cn(-c2cnc(C#N)cn2)nc1C(=O)Nc1ccc(Oc2ccnc3cc(OC)c(OC)cc23)cn1 [Compound 54] |
| ≥ 1 µM | ≥ 1 µM | ≥ 1 µM | ≥ 1 µM | CCOc1cn(-c2cccnc2)nc1C(=O)Nc1cnc(Oc2ccnc3cc(OC)c(OC)cc23)nc1 [Compound 60] |
| ≥ 1 µM | < 0.1 µM | ≥ 1 µM | 0.1 to 1 µM | CCOc1cn(CC(=O)O)nc1C(=O)Nc1ccc(Oc2ccnc3cc(OC)c(OC)cc23)cn1 [Compound 62] |
| 0.1 to 1 µM | 0.1 to 1 µM | 0.1 to 1 µM | 0.1 to 1 µM | CCOc1cn(CCC(=O)O)nc1C(=O)Nc1ccc(Oc2ccnc3cc(OC)c(OC)cc23)cn1 [Compound 63] |
| 0.1 to 1 µM | < 0.1 µM | 0.1 to 1 µM | 0.1 to 1 µM | CCOc1cn(CCC(=O)NC)nc1C(=O)Nc1ccc(Oc2ccnc3cc(OC)c(OC)cc23)cn1 [Compound 67] |
| 0.1 to 1 µM | 0.1 to 1 µM | ≥ 1 µM | ≥ 1 µM | CCOc1cn(C2CCNC2)nc1C(=O)Nc1ccc(Oc2ccnc3cc(OC)c(OC)cc23)cn1 (centres unmarked) [Compound 69] |
| 0.1 to 1 µM | < 0.1 µM | 0.1 to 1 µM | 0.1 to 1 µM | CCOc1cn(CCO)nc1C(=O)Nc1ccc(Oc2ccnc3cc(OC)c(OC)cc23)cn1 [Compound 70] |
| 0.1 to 1 µM | 0.1 to 1 µM | ≥ 1 µM | ≥ 1 µM | CCOc1cnn(C2CCNC2)c1C(=O)Nc1ccc(Oc2ccnc3cc(OC)c(OC)cc23)cn1 (centres unmarked) [Compound 71] |

More lines, now with the values behind:

| SMILES | Kd (Met) | Kd (Mer) | Kd (TYRO3) | Kd (Axl) |
| --- | --- | --- | --- | --- |
| CCOc1cn(-c2cncnc2)nc1C(=O)Nc1ccc(Oc2ccnc3cc(OC)c(OC)cc23)cn1 [Compound 2] | < 0.1 µM | < 0.1 µM | < 0.1 µM | < 0.1 µM |
| CCOc1cnn(-c2cncn2C)c1C(=O)Nc1ccc(Oc2ccnc3cc(OC)c(OC)cc23)cn1 [Compound 15] | 0.1 to 1 µM | 0.1 to 1 µM | ≥ 1 µM | ≥ 1 µM |
| CCOc1c[nH]nc1C(=O)Nc1ccc(Oc2ccnc3cc(OC)c(OC)cc23)cn1 [Compound 22] | 0.1 to 1 µM | < 0.1 µM | < 0.1 µM | 0.1 to 1 µM |
| CCOc1cn(-c2ccc(NC(C)C)cc2Cl)nc1C(=O)Nc1ccc(Oc2ccnc3cc(OC)c(OC)cc23)cn1 [Compound 24] | 0.1 to 1 µM | < 0.1 µM | ≥ 1 µM | 0.1 to 1 µM |
| CCOc1cnn(-c2ccoc2)c1C(=O)Nc1ccc(Oc2ccnc3cc(OC)c(OC)cc23)cn1 [Compound 25] | ≥ 1 µM | ≥ 1 µM | ≥ 1 µM | 0.1 to 1 µM |
| CCOc1cnn(CC)c1C(=O)Nc1ccc(Oc2ccnc3cc(OC)c(OC)cc23)cn1 [Compound 28] | 0.1 to 1 µM | 0.1 to 1 µM | ≥ 1 µM | 0.1 to 1 µM |
| CCOc1cn(CC(N)=O)nc1C(=O)Nc1ccc(Oc2ccnc3cc(OC)c(OC)cc23)cn1 [Compound 35] | ≥ 1 µM | < 0.1 µM | ≥ 1 µM | 0.1 to 1 µM |
| CCOc1cnn(CCn2cccn2)c1C(=O)Nc1ccc(Oc2ccnc3cc(OC)c(OC)cc23)cn1 [Compound 42] | 0.1 to 1 µM | < 0.1 µM | ≥ 1 µM | 0.1 to 1 µM |
| CCOc1nn(-c2cccnc2)cc1C(=O)Nc1ccc(Oc2ccnc3cc(OC)c(OC)cc23)cn1 [Compound 46] | ≥ 1 µM | ≥ 1 µM | ≥ 1 µM | ≥ 1 µM |
| CCOc1cn(-c2cccnc2)nc1C(=O)Nc1ncc(Oc2ccnc3cc(OC)c(OC)cc23)cn1 [Compound 47] | ≥ 1 µM | 0.1 to 1 µM | ≥ 1 µM | 0.1 to 1 µM |
